Test results reported in patent publication US4882313A, “Carboxamide derivatives of glycopeptides” (SmithKline Beckman Corporation, priority 1987, dated 1989).

Legend:
[1] = tested on: Streptococcus faecalis; test: standard microtiter assay, minimum inhibitory concentration; format: cell-based; details: for minimum inhibitory concentration of antibiotic, Test Organism 9: Test Organism 9, strain of Streptococcus faecalis; for minimum inhibitory concentration of antibiotic, Test Organism 10: Test Organism 10, strain of Streptococcus faecalis
From the text: (§1) Representative results of standard microtiter assays are reported in Table 1 which follows, as the minimum inhibitory concentration of antibiotic (mg/ml). In Table 1, test organisms 1-5 were different strains of Staphylococcus aureus; 6, 8, 11, 13 and 14 were different strains of Staphylococcus epidermidis; 7 was a Staphylococcus haemolyticus; 9 and 10 were different strains of Streptococcus faecalis; and 12 was a Staphylococcus saprophyticus.

[2] = tested on: Staphylococcus haemolyticus; test: as above; format: cell-based; details: Test Organism 7, Staphylococcus haemolyticus
From the text: as §1

[3] = tested on: Staphylococcus saprophyticus; test: as above; format: cell-based; details: Test Organism 12, Staphylococcus saprophyticus
From the text: as §1

[4] = tested on: Staphylococcus aureus; test: as above; format: cell-based; details: for minimum inhibitory concentration of antibiotic, Test Organism 1: Test Organism 1, strain of Staphylococcus aureus; for minimum inhibitory concentration of antibiotic, Test Organism 2: Test Organism 2, strain of Staphylococcus aureus; for minimum inhibitory concentration of antibiotic, Test Organism 3: Test Organism 3, strain of Staphylococcus aureus; for minimum inhibitory concentration of antibiotic, Test Organism 4: Test Organism 4, strain of Staphylococcus aureus; for minimum inhibitory concentration of antibiotic, Test Organism 5: Test Organism 5, strain of Staphylococcus aureus
From the text: as §1

[5] = tested on: Staphylococcus epidermidis; test: as above; format: cell-based; set-up: minimum inhibitory concentration of antibiotic, Test Organism 8: unit not given here; details: for minimum inhibitory concentration of antibiotic, Test Organism 6: Test Organism 6, strain of Staphylococcus epidermidis; for minimum inhibitory concentration of antibiotic, Test Organism 8: Test Organism 8, strain of Staphylococcus epidermidis; for minimum inhibitory concentration of antibiotic, Test Organism 11: Test Organism 11, strain of Staphylococcus epidermidis; for minimum inhibitory concentration of antibiotic, Test Organism 13: Test Organism 13, strain of Staphylococcus epidermidis; for minimum inhibitory concentration of antibiotic, Test Organism 14: Test Organism 14, strain of Staphylococcus epidermidis
From the text: as §1

[6] = pI (analytical data, Table 2); format: physicochemical
From the text: Using substantially the procedures of both Examples 1 and 2, the compounds of Examples 3-15 were obtained by using the appropriate glycopeptide and amine starting materials.

CNC1C(=O)NC2C(=O)NC(C(=O)NC3C(=O)NC4C(=O)NC(C(=O)NC(C(=O)O)c5cc(O)cc(O)c5-c5cc4ccc5O)C(O)c4cc(Cl)c(c(Cl)c4)Oc4cc3cc(c4O)Oc3ccc(cc3Cl)C2O)c2cc(cc(O)c2Cl)Oc2cc1ccc2O (stereo not drawn) [Compound 2a, Ardacin aglycone, reference compound]
minimum inhibitory concentration of antibiotic, Test Organism 9 [1]: 800 µg/mL | minimum inhibitory concentration of antibiotic, Test Organism 10 [1]: 800 µg/mL | minimum inhibitory concentration of antibiotic, Test Organism 7 [2]: 6300 µg/mL | minimum inhibitory concentration of antibiotic, Test Organism 12 [3]: 1600 µg/mL | minimum inhibitory concentration of antibiotic, Test Organism 1 [4]: 800 µg/mL | minimum inhibitory concentration of antibiotic, Test Organism 2 [4]: 800 µg/mL | minimum inhibitory concentration of antibiotic, Test Organism 3 [4]: 400 µg/mL | minimum inhibitory concentration of antibiotic, Test Organism 4 [4]: 400 µg/mL | minimum inhibitory concentration of antibiotic, Test Organism 5 [4]: 800 µg/mL | minimum inhibitory concentration of antibiotic, Test Organism 6 [5]: 800 µg/mL | minimum inhibitory concentration of antibiotic, Test Organism 8 [5]: 3.1 | minimum inhibitory concentration of antibiotic, Test Organism 11 [5]: 1600 µg/mL | minimum inhibitory concentration of antibiotic, Test Organism 13 [5]: 1800 µg/mL | minimum inhibitory concentration of antibiotic, Test Organism 14 [5]: 800 µg/mL

CNC1C(=O)NC2C(=O)NC(C(=O)NC3C(=O)NC4C(=O)NC(C(=O)NC(C(=O)O)c5cc(O)cc(OC6OC(CO)C(O)C(O)C6O)c5-c5cc4ccc5O)C(O)c4cc(Cl)c(c(Cl)c4)Oc4cc3cc(c4O)Oc3ccc(cc3Cl)C2O)c2cc(cc(O)c2Cl)Oc2cc1ccc2O (stereo not drawn) [Compound 2b, Ardacin mannosylaglycone, reference compound]
minimum inhibitory concentration of antibiotic, Test Organism 9 [1]: 800 µg/mL | minimum inhibitory concentration of antibiotic, Test Organism 10 [1]: 800 µg/mL | minimum inhibitory concentration of antibiotic, Test Organism 7 [2]: 25000 µg/mL | minimum inhibitory concentration of antibiotic, Test Organism 12 [3]: 3100 µg/mL | minimum inhibitory concentration of antibiotic, Test Organism 1 [4]: 1600 µg/mL | minimum inhibitory concentration of antibiotic, Test Organism 2 [4]: 1600 µg/mL | minimum inhibitory concentration of antibiotic, Test Organism 3 [4]: 800 µg/mL | minimum inhibitory concentration of antibiotic, Test Organism 4 [4]: > 1600 µg/mL | minimum inhibitory concentration of antibiotic, Test Organism 5 [4]: 1600 µg/mL | minimum inhibitory concentration of antibiotic, Test Organism 6 [5]: 12500 µg/mL | minimum inhibitory concentration of antibiotic, Test Organism 8 [5]: 6.3 | minimum inhibitory concentration of antibiotic, Test Organism 11 [5]: 25000 µg/mL | minimum inhibitory concentration of antibiotic, Test Organism 13 [5]: 6300 µg/mL

CNC1C(=O)NC2C(=O)NC(C(=O)NC3C(=O)NC4C(=O)NC(C(=O)NC(C(N)=O)c5cc(O)cc(O)c5-c5cc4ccc5O)C(O)c4cc(Cl)c(c(Cl)c4)Oc4cc3cc(c4O)Oc3ccc(cc3Cl)C2O)c2cc(cc(O)c2Cl)Oc2cc1ccc2O (stereo not drawn) [Compound 2c, Ardacin aglycone amide]
minimum inhibitory concentration of antibiotic, Test Organism 9 [1]: 200 µg/mL | minimum inhibitory concentration of antibiotic, Test Organism 10 [1]: 400 µg/mL | minimum inhibitory concentration of antibiotic, Test Organism 7 [2]: 800 µg/mL | minimum inhibitory concentration of antibiotic, Test Organism 12 [3]: 200 µg/mL | minimum inhibitory concentration of antibiotic, Test Organism 1 [4]: 200 µg/mL | minimum inhibitory concentration of antibiotic, Test Organism 2 [4]: 200 µg/mL | minimum inhibitory concentration of antibiotic, Test Organism 3 [4]: 400 µg/mL | minimum inhibitory concentration of antibiotic, Test Organism 4 [4]: 400 µg/mL | minimum inhibitory concentration of antibiotic, Test Organism 5 [4]: 200 µg/mL | pI [6]: 7.1 | minimum inhibitory concentration of antibiotic, Test Organism 6 [5]: 400 µg/mL | minimum inhibitory concentration of antibiotic, Test Organism 8 [5]: 0.4 | minimum inhibitory concentration of antibiotic, Test Organism 11 [5]: 400 µg/mL | minimum inhibitory concentration of antibiotic, Test Organism 13 [5]: 400 µg/mL | minimum inhibitory concentration of antibiotic, Test Organism 14 [5]: 200 µg/mL

CNC1C(=O)NC2C(=O)NC(C(=O)NC3C(=O)NC4C(=O)NC(C(=O)NC(C(=O)NCCN)c5cc(O)cc(O)c5-c5cc4ccc5O)C(O)c4cc(Cl)c(c(Cl)c4)Oc4cc3cc(c4O)Oc3ccc(cc3Cl)C2O)c2cc(cc(O)c2Cl)Oc2cc1ccc2O (stereo not drawn) [Compound 2e, Ardacin aglycone-(2-aminoethyl amide)]
minimum inhibitory concentration of antibiotic, Test Organism 9 [1]: 50 µg/mL | minimum inhibitory concentration of antibiotic, Test Organism 10 [1]: 100 µg/mL | minimum inhibitory concentration of antibiotic, Test Organism 7 [2]: 50 µg/mL | minimum inhibitory concentration of antibiotic, Test Organism 12 [3]: 50 µg/mL | minimum inhibitory concentration of antibiotic, Test Organism 1 [4]: 50 µg/mL | minimum inhibitory concentration of antibiotic, Test Organism 2 [4]: 50 µg/mL | minimum inhibitory concentration of antibiotic, Test Organism 3 [4]: 50 µg/mL | minimum inhibitory concentration of antibiotic, Test Organism 4 [4]: 200 µg/mL | minimum inhibitory concentration of antibiotic, Test Organism 5 [4]: 50 µg/mL | minimum inhibitory concentration of antibiotic, Test Organism 6 [5]: 100 µg/mL | minimum inhibitory concentration of antibiotic, Test Organism 8 [5]: 0.1 | minimum inhibitory concentration of antibiotic, Test Organism 11 [5]: 100 µg/mL | minimum inhibitory concentration of antibiotic, Test Organism 13 [5]: 50 µg/mL | minimum inhibitory concentration of antibiotic, Test Organism 14 [5]: 50 µg/mL

CNC1C(=O)NC2C(=O)NC(C(=O)NC3C(=O)NC4C(=O)NC(C(=O)NC(C(=O)O)c5cc(O)cc(OC6OC(CO)C(O)C(O)C6O)c5-c5cc4ccc5O)C(O)c4ccc(c(Cl)c4)Oc4cc3cc(c4OC3OC(C(=O)O)C(O)C(O)C3NC(=O)CCCCCCCCC(C)C)Oc3ccc(cc3)C2O)c2cc(cc(O)c2Cl)Oc2cc1ccc2O (stereo not drawn) [Compound 2p, AAJ-271 C1, reference compound]
minimum inhibitory concentration of antibiotic, Test Organism 9 [1]: 6300 µg/mL | minimum inhibitory concentration of antibiotic, Test Organism 10 [1]: 6300 µg/mL | minimum inhibitory concentration of antibiotic, Test Organism 7 [2]: 6300 µg/mL | minimum inhibitory concentration of antibiotic, Test Organism 12 [3]: 1600 µg/mL | minimum inhibitory concentration of antibiotic, Test Organism 1 [4]: 400 µg/mL | minimum inhibitory concentration of antibiotic, Test Organism 2 [4]: 400 µg/mL | minimum inhibitory concentration of antibiotic, Test Organism 3 [4]: 200 µg/mL | minimum inhibitory concentration of antibiotic, Test Organism 4 [4]: 800 µg/mL | minimum inhibitory concentration of antibiotic, Test Organism 5 [4]: 400 µg/mL | minimum inhibitory concentration of antibiotic, Test Organism 6 [5]: 6300 µg/mL | minimum inhibitory concentration of antibiotic, Test Organism 8 [5]: 25 | minimum inhibitory concentration of antibiotic, Test Organism 11 [5]: 25000 µg/mL | minimum inhibitory concentration of antibiotic, Test Organism 13 [5]: 6300 µg/mL | minimum inhibitory concentration of antibiotic, Test Organism 14 [5]: 6300 µg/mL

CN[C@H](CC(C)C)C(=O)N[C@H]1C(=O)N[C@@H](CC(N)=O)C(=O)N[C@H]2C(=O)N[C@H]3C(=O)N[C@H](C(=O)N[C@H](C(=O)O)c4cc(O)cc(O)c4-c4cc3ccc4O)[C@H](O)c3ccc(c(Cl)c3)Oc3cc2cc(c3O[C@@H]2O[C@H](CO)[C@@H](O)[C@H](O)[C@H]2O[C@H]2C[C@](C)(N)[C@H](O)[C@H](C)O2)Oc2ccc(cc2Cl)[C@H]1O [Vancomycin, reference compound]
minimum inhibitory concentration of antibiotic, Test Organism 9 [1]: 3100 µg/mL | minimum inhibitory concentration of antibiotic, Test Organism 10 [1]: 3100 µg/mL | minimum inhibitory concentration of antibiotic, Test Organism 7 [2]: 3100 µg/mL | minimum inhibitory concentration of antibiotic, Test Organism 12 [3]: 3100 µg/mL | minimum inhibitory concentration of antibiotic, Test Organism 1 [4]: 3100 µg/mL | minimum inhibitory concentration of antibiotic, Test Organism 2 [4]: 1600 µg/mL | minimum inhibitory concentration of antibiotic, Test Organism 3 [4]: 1600 µg/mL | minimum inhibitory concentration of antibiotic, Test Organism 4 [4]: > 3100 µg/mL | minimum inhibitory concentration of antibiotic, Test Organism 5 [4]: 1600 µg/mL | minimum inhibitory concentration of antibiotic, Test Organism 6 [5]: 3100 µg/mL | minimum inhibitory concentration of antibiotic, Test Organism 11 [5]: 3100 µg/mL | minimum inhibitory concentration of antibiotic, Test Organism 13 [5]: 3100 µg/mL | minimum inhibitory concentration of antibiotic, Test Organism 14 [5]: 3100 µg/mL

AAJ-271 C2 [Compound 2r, reference compound]
minimum inhibitory concentration of antibiotic, Test Organism 9 [1]: 200 µg/mL | minimum inhibitory concentration of antibiotic, Test Organism 10 [1]: 200 µg/mL | minimum inhibitory concentration of antibiotic, Test Organism 7 [2]: 12500 µg/mL | minimum inhibitory concentration of antibiotic, Test Organism 12 [3]: 1600 µg/mL | minimum inhibitory concentration of antibiotic, Test Organism 1 [4]: 800 µg/mL | minimum inhibitory concentration of antibiotic, Test Organism 2 [4]: 800 µg/mL | minimum inhibitory concentration of antibiotic, Test Organism 3 [4]: 200 µg/mL | minimum inhibitory concentration of antibiotic, Test Organism 4 [4]: 1600 µg/mL | minimum inhibitory concentration of antibiotic, Test Organism 5 [4]: 800 µg/mL | minimum inhibitory concentration of antibiotic, Test Organism 6 [5]: 25000 µg/mL | minimum inhibitory concentration of antibiotic, Test Organism 8 [5]: 12.5 | minimum inhibitory concentration of antibiotic, Test Organism 11 [5]: 25000 µg/mL | minimum inhibitory concentration of antibiotic, Test Organism 13 [5]: 6300 µg/mL | minimum inhibitory concentration of antibiotic, Test Organism 14 [5]: 3100 µg/mL

Ardacin A [Compound 2i, reference compound]
minimum inhibitory concentration of antibiotic, Test Organism 9 [1]: 800 µg/mL | minimum inhibitory concentration of antibiotic, Test Organism 10 [1]: 800 µg/mL | minimum inhibitory concentration of antibiotic, Test Organism 7 [2]: 25000 µg/mL | minimum inhibitory concentration of antibiotic, Test Organism 12 [3]: 12500 µg/mL | minimum inhibitory concentration of antibiotic, Test Organism 1 [4]: 6300 µg/mL | minimum inhibitory concentration of antibiotic, Test Organism 2 [4]: 3100 µg/mL | minimum inhibitory concentration of antibiotic, Test Organism 3 [4]: 800 µg/mL | minimum inhibitory concentration of antibiotic, Test Organism 4 [4]: > 6300 µg/mL | minimum inhibitory concentration of antibiotic, Test Organism 5 [4]: 3100 µg/mL | minimum inhibitory concentration of antibiotic, Test Organism 6 [5]: 50000 µg/mL | minimum inhibitory concentration of antibiotic, Test Organism 8 [5]: 25 | minimum inhibitory concentration of antibiotic, Test Organism 11 [5]: 25000 µg/mL | minimum inhibitory concentration of antibiotic, Test Organism 13 [5]: 6300 µg/mL | minimum inhibitory concentration of antibiotic, Test Organism 14 [5]: 5100 µg/mL
